One experiment has as its system UM-UC-9 engineered cells. The experiment can be described thus: Cell proliferation / short-term viability assay, CellTiter-Glo 144 h. Format: cell-based, human. The settings on record: read-out: CTGlo 144 h UMUC9.5, G150. In a few lines: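 UM-UC-9 engineered assay-ready cells seeded at 500 cells/well in high-glucose DMEM/10% FBS, treated from dose-response plates, grown at 37° C, 5% CO2. CellTiter-Glo 2.0 luminescence read on day 7, with a day-0 pretreatment plate as T0 reference and DMSO wells as negative control.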
In general terms: Cellular ATP, detected with luciferase, serves as a proxy for viable cell number.

Another experiment has as its target T1, His6-TEV-PPARγ-(234-505) (Homo sapiens, UniProt P37231).
T1 construct: The His6-TEV-PPARγ-(234-505) protein for assay was expressed and purified; TEV cleavage site (N); made in house
T1 sequence (P37231 234-505): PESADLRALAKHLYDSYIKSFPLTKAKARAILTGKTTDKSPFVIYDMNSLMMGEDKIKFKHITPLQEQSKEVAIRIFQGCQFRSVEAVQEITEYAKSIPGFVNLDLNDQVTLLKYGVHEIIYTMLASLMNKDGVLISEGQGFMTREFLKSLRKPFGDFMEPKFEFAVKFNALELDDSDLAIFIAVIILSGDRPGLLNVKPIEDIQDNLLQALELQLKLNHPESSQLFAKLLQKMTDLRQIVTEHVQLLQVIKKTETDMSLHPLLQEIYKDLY
The experiment can be described thus: TR-FRET Assay to Measure Co-R Peptide Recruitment to PPARγ. Format: biochemical. The conditions noted are these: Co-R peptide (SMRT-ID2) recruitment; top final concentration 20 μM; read-out: TR-FRET i-Ag; AC50. In outline:
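His-tagged PPARγ (or controls) was preincubated with compound for 20 minutes at room temperature, then 5 nM anti-His terbium antibody and 200 nM FITC-labeled SMRT-ID2 corepressor peptide (final) were added for a further hour. TR-FRET signal was normalized to percent response using 500 nM T0070907 and DMSO controls.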
For orientation: TR-FRET usually uses a lanthanide donor and a delayed reading to cut background.

Read-outs that look alike come from different tables or passages of the source.

Here are results for 21 compounds from US12606541B2, “PPARg modulators and methods of use” (Eisai R&D Management Co., Ltd., priority 2020, dated 2026).

Regarding `COc1cc(-c2cc(C(=O)N3CCC(C(=O)N[C@@H](C)c4cccc(F)c4)CC3)n[nH]2)c(Cl)cn1` [Example 103, (8)-1-(5-(5-chloro-2-methoxypyridin-4-yl)-1H-pyrazole-3-carbonyl)-N-(1-(3-fluorophenyl)ethyl)piperidine-4-carboxamide], the IC50 with UM-UC-9 engineered cells (Homo sapiens, UM-UC-9, 144 h) stood at 320 nM. Besides, the AC50 at His6-TEV-PPARγ-(234-505) stood at 257 nM.

As for `O=C(N[C@H]1CC[C@@](O)(C(F)(F)F)CC1)[C@@H]1C[C@H]2CC[C@@H](C1)N2C(=O)c1cc(-c2ccnc(CO)c2)[nH]n1` [Example 317, (1R,3s,5S)—N-((1r,4R)-4-hydroxy-4-(trifluoromethyl)cyclohexyl)-8-(5-(2-(hydroxymethyl)pyridin-4-yl)-1H-pyrazole-3-carbonyl)-8-azabicyclo[3.2]octane-3-carboxamide], the IC50 in the experiment with UM-UC-9 engineered cells (Homo sapiens, UM-UC-9, 144 h) is over 10000 nM. Moreover, on His6-TEV-PPARγ-(234-505), the AC50 turned out to be 344 nM.

As to `COc1cc(-c2cc(C(=O)N3CCC(C(=O)NCC4CCn5c(C)nnc5C4)CC34CC4)n[nH]2)c(F)cn1` (single isomer, unassigned) [Example 346-A], the IC50 in the experiment with UM-UC-9 engineered cells came to 2790 nM. For the same compound, the AC50 at His6-TEV-PPARγ-(234-505) was determined as 504 nM.

In the case of `COc1cc(-c2cc(C(=O)N3CCC(C(=O)NC4CCC(C)CC4)CC3)n[nH]2)c(Cl)cn1` (single isomer, unassigned) [Example 101-B], the IC50 with UM-UC-9 engineered cells (listed as 101b) turned out to be 84 nM. Also, the AC50 at His6-TEV-PPARγ-(234-505) worked out at 9.2 nM.

As to `COc1cc(-c2cc(C(=O)N3CCC(C(=O)NC4CC(C)CC(C)(C)C4)CC3)n[nH]2)c(Cl)cn1` (mixture of isomers) [Example 150, 1-(5-(5-chloro-2-methoxypyridin-4-yl)-1H-pyrazole-3-carbonyl)-N-(3,3,5-trimethylcyclohexyl)piperidine-4-carboxamide], the IC50 in the experiment on UM-UC-9 engineered cells (Homo sapiens, UM-UC-9, 144 h) was found to be 779 nM. Further, at His6-TEV-PPARγ-(234-505), the AC50 was found to be 269 nM.

In the case of “(1R,3s,5S)-8-(5-(5-fluoro-2-methoxypyridin-4-yl)-1H-pyrazole-3-carbonyl)-N—((R)-1-(3-(trifluoromethyl)-1,2,4-oxadiazol-5-yl)ethyl)-8-azabicyclo[3.2.1]octane-3-carboxamide and (1R,3s,5S)-8-(5-(5-fluoro-2-methoxypyridin-4-yl)-1H-pyrazole-3-carbonyl)-N—(S)-1-(3-(trifluoromethyl)-1,2,4-oxadiazol-5-yl)ethyl)-8-azabicyclo[3.2.1]octane-3-carboxamide [Example 290]”, in the experiment on UM-UC-9 engineered cells, the IC50 is 833 nM. Further, the AC50 at His6-TEV-PPARγ-(234-505) worked out at 400 nM.

Turning to `N#Cc1cc(-c2cc(C(=O)N3CCC(C(=O)NC4CCC(O)(C(F)(F)F)CC4)CC34CC4)n[nH]2)ncn1` (single isomer, unassigned) [Example 528-B], the IC50 with UM-UC-9 engineered cells came out at 405 nM. Further, at His6-TEV-PPARγ-(234-505), the AC50 was found to be 14 nM.

With `COc1cc(-c2cc(C(=O)N3CC[C@H](C(=O)NCc4ncc(F)cc4C)CC34CC4)n[nH]2)c(F)cn1` [Example 361, (S)-4-(5-(5-fluoro-2-methoxypyridin-4-yl)-1H-pyrazole-3-carbonyl)-N-((5-fluoro-3-methylpyridin-2-yl)methyl)-4-azaspiro[2,5]octane-7-carboxamide], the IC50 with UM-UC-9 engineered cells (Homo sapiens, UM-UC-9, 144 h) is 17.8 nM. In addition, the AC50 on His6-TEV-PPARγ-(234-505) was found to be 10.2 nM.

As for `COc1cc(-c2cc(C(=O)N3CC[C@H](C(=O)NCC4CCNCC4(F)F)CC34CC4)n[nH]2)c(F)cn1` (single isomer, unassigned) [Example 511-A], the IC50 in the experiment with UM-UC-9 engineered cells worked out at 63.5 nM. Also, on His6-TEV-PPARγ-(234-505), the AC50 came to 17.2 nM.

Turning to `COc1cc(-c2cc(C(=O)N3CC[C@H](C(=O)NCc4ccncc4C(F)(F)F)CC34CC4)[nH]n2)c(F)cn1` [Example 525, (S)-4-(3-(5-fluoro-2-methoxypyridin-4-yl)-1H-pyrazole-5-carbonyl)-N-((3-(trifluoromethyl)pyridin-4-yl)methyl)-4-azaspiro[2.5]octane-7-carboxamide], in the experiment on UM-UC-9 engineered cells (Homo sapiens, UM-UC-9, 144 h), the IC50 turned out to be 19 nM. Further, the AC50 on His6-TEV-PPARγ-(234-505) came out at 7 nM.

Take `COc1cc(-c2cc(C(=O)N3CC[C@H](C(=O)N[C@@H]4CCN(CC(C)(C)O)C4)CC34CC4)[nH]n2)c(F)cn1` [Example 344-B, (S)-4-(3-(5-fluoro-2-methoxypyridin-4-yl)-1H-pyrazole-5-carbonyl)-N—((R)-1-(2-hydroxy-2-methylpropyl)pyrrolidin-3-yl)-4-azaspiro[2.5]octane-7-carboxamide]: in the experiment on UM-UC-9 engineered cells (Homo sapiens, UM-UC-9, 144 h), the IC50 was determined as 570 nM. For the same compound, the AC50 on His6-TEV-PPARγ-(234-505) was found to be 123 nM.

As for `COc1cc(-c2cc(C(=O)N3CC[C@H](C(=O)NCc4nccnc4C(F)(F)F)CC34CC4)n[nH]2)c(F)cn1` [Example 432, (S)-4-(5-(5-fluoro-2-methoxypyridin-4-yl)-1H-pyrazole-3-carbonyl)-N-((3-(trifluoromethyl)pyrazin-2-yl)methyl)-4-azaspiro[2.5]octane-7-carboxamide], the IC50 in the experiment with UM-UC-9 engineered cells (Homo sapiens, UM-UC-9, 144 h) is 9.1 nM. Also, on His6-TEV-PPARγ-(234-505), the AC50 turned out to be 4.1 nM.

In the case of `Cc1cc(-c2cc(C(=O)N3CCC(C(=O)NCc4ccc5[nH]nc(F)c5c4)CC3)n[nH]2)c(F)cn1` [Example 269, N-[(3-fluoro-1H-indazol-5-yl)methyl]-1-[5-(5-fluoro-2-methylpyridin-4-yl)-1H-pyrazole-3-carbonyl]piperidine-4-carboxamide], in the experiment on UM-UC-9 engineered cells (Homo sapiens, UM-UC-9, 144 h), the IC50 amounted to 160 nM. Further, the AC50 at His6-TEV-PPARγ-(234-505) stood at 12 nM.

As to `COc1cc(-c2cc(C(=O)N3CCC(C(=O)NCC4CCNCC4(F)F)CC34CC4)n[nH]2)c(F)cn1` (mixture of isomers) [Example 511, (S)—N—(((S)-3,3-difluoropiperidin-4-yl)methyl)-4-(5-(5-fluoro-2-methoxypyridin-4-yl)-1H-pyrazole-3-carbonyl)-4-azaspiro[2.5]octane-7-carboxamide and (S)—N—(((R)-3,3-difluoropiperidin-4-yl)methyl)-4-(5-(5-fluoro-2-methoxypyridin-4-yl)-1H-pyrazole-3-carbonyl)-4-azaspiro[2.5]octane-7-carboxamide], the IC50 with UM-UC-9 engineered cells was 95.2 nM. The AC50 on His6-TEV-PPARγ-(234-505) is 10.6 nM.

With `CCOC1(C(F)(F)F)CCC(NC(=O)[C@@H]2CCN(C(=O)c3cc(-c4cc(C)ncn4)[nH]n3)C3(CC3)C2)CC1` (mixture of isomers) [Example 308-B, (R)—N-(4-ethoxy-4-(trifluoromethyl)cyclohexyl)-4-(5-(6-methylpyrimidin-4-yl)-1H-pyrazole-3-carbonyl)-4-azaspiro[2.5]octane-7-carboxamide], the IC50 with UM-UC-9 engineered cells (Homo sapiens, UM-UC-9, 144 h) came out at 1010 nM. The AC50 on His6-TEV-PPARγ-(234-505) amounted to 548 nM.

For `COc1cc(-c2cc(C(=O)N3CC[C@H](C(=O)NCc4nnc(C)cc4C)CC34CC4)n[nH]2)c(F)cn1` [Example 412, (S)—N-((4,6-dimethylpyridazin-3-yl)methyl)-4-(5-(5-fluoro-2-methoxypyridin-4-yl)-1H-pyrazole-3-carbonyl)-4-azaspiro[2.5]octane-7-carboxamide], the IC50 with UM-UC-9 engineered cells (Homo sapiens, UM-UC-9, 144 h) turned out to be 198 nM. For the same compound, the AC50 at His6-TEV-PPARγ-(234-505) amounted to 79.2 nM.

Consider `COc1cc(-c2cc(C(=O)N3CCC(C(=O)NCc4ncccc4F)CC3)n[nH]2)c(Cl)cn1` [Example 146, 1-(5-(5-chloro-2-methoxypyridin-4-yl)-1H-pyrazole-3-carbonyl)-N-((3-fluoropyridin-2-yl)methyl)piperidine-4-carboxamide], for which, in the experiment on UM-UC-9 engineered cells (Homo sapiens, UM-UC-9, 144 h), the IC50 was 1410 nM. For the same compound, the AC50 on His6-TEV-PPARγ-(234-505) turned out to be 262 nM.

On to `COc1cc(-c2cc(C(=O)N3CCC(C(=O)NCc4ccc5c(c4)C(C)(C)C(=O)N5)CC3)n[nH]2)c(Cl)cn1` [Example 242, 1-(5-(5-chloro-2-methoxypyridin-4-yl)-1H-pyrazole-3-carbonyl)-N-((3,3-dimethyl-2-oxoindolin-5-yl)methyl)piperidine-4-carboxamide], for which the IC50 in the experiment with UM-UC-9 engineered cells (Homo sapiens, UM-UC-9, 144 h) was determined as 1660 nM. Further, the AC50 at His6-TEV-PPARγ-(234-505) amounted to 74.2 nM.

Consider `COc1cc(-c2cc(C(=O)N3CCC(C(=O)NCc4ncc(Cl)cn4)CC3)n[nH]2)c(Cl)cn1` [Example 138, 1-(5-(5-chloro-2-methoxypyridin-4-yl)-1H-pyrazole-3-carbonyl)-N-((5-chloropyrimidin-2-yl)methyl)piperidine-4-carboxamide], for which the IC50 in the experiment on UM-UC-9 engineered cells (Homo sapiens, UM-UC-9, 144 h) came to 1470 nM. Besides, the AC50 on His6-TEV-PPARγ-(234-505) was found to be 501 nM.

As to `COc1cc(-c2cc(C(=O)N3CC[C@@H](C(=O)NCC45CCC(O)(CC4)CC5)CC34CC4)n[nH]2)c(F)cn1` (single isomer, unassigned) [Example 313-A], in the experiment on UM-UC-9 engineered cells (Homo sapiens, UM-UC-9, 144 h), the IC50 was 3890 nM. Moreover, the AC50 on His6-TEV-PPARγ-(234-505) was 1290 nM.

As for `COc1cc(-c2cc(C(=O)N3CCC(C(=O)NC4CCN(c5cccnc5)C4)CC34CC4)n[nH]2)c(F)cn1` (mixture of isomers) [Example 390, (S)-4-(5-(5-fluoro-2-methoxypyridin-4-yl)-1H-pyrazole-3-carbonyl)-N—((R)-1-(pyridin-3-yl)pyrrolidin-3-yl)-4-azaspiro[2.5]octane-7-carboxamide and (S)-4-(5-(5-fluoro-2-methoxypyridin-4-yl)-1H-pyrazole-3-carbonyl)-N—((S)-1-(pyridin-3-yl)pyrrolidin-3-yl)-4-azaspiro[2.5]octane-7-carboxamide], in the experiment with UM-UC-9 engineered cells, the IC50 came to 7.1 nM. Further, the AC50 at His6-TEV-PPARγ-(234-505) worked out at 4.2 nM.
